What was measured:
[1] = Zeta-potential vs pH of cinacalcet emulsions containing sodium oleate; assay type: physicochemical; conditions: cinacalcet emulsion; for pH at which charge is zero: from linear regression line; for zeta-potential: in mV (unit assumed)
Procedure: Preparation of Each Emulsion: the Emulsion were Prepared Using Substantially the same method as discussed above in Example 2 under “Laboratory scale preparation.” Briefly, the aqueous phase was prepared by adding appropriate amounts of glycerin and water to an appropriate container. The glycerin and water were mixed well and maintained at elevated temperatures (60-70° C.) by immersing the container in a water batch.
The oil phase was prepared by adding appropriate oil and lecithin. The container was tared and the cinacalcet free base was added. Appropriate quantity of sodium oleate (between 0-1%) was added to this oil phase mixture. The oil/lecithin/cinacalcet mixture was mixed at an elevated temperature using sonicater probes to disperse/dissolve the lecithin, the Cinacalcet free base and the sodium oleate.
The hot oil phase was transferred to the aqueous phase at elevated temperatures and homogenized to obtain coarse emulsion. Fine emulsion was obtained using a microfluidizer.
Charge Measurement: Zeta-potential as a function of pH was determined using a Malvern Zetasizer Nano Series Model ZEN 3600 laser-scattering particle electrophoretic analyzer that measures the electrophoretic mobility and zeta potential distribution. Samples were prepared for the zeta potential titration by diluting each emulsion approximately 2500-fold in water. The pH of this mixture was noted after dilution, and then adjusted to a pH 9 using sodium hydroxide. The pH was then titrated down to pH 6 in 0.3 or 0.5 unit steps. Zeta potential measurements were taken at every step. The zeta-potential of each emulsion was plotted as a function of pH and fit to a linear regression line.

[2] = Long-term storage stability of emulsions (assay, pH, particle size); assay type: physicochemical; conditions: 5 mg/mL emulsion
Procedure: Calcimimetics emulsions for long-term studies were prepared at 5 mg/mL drug concentration, 5% SBO, 2% egg lecithin, 2% glycerin, 20 mM TRIS buffer at pH 9. The emulsions were packed in glass vials at 20 mL each and stored inverted in stability chambers. At each time-point, 3 vials from each chamber were pulled and analyzed for the calcimimetic concentration, pH and particle size. […] The values for pH dropped over time, with greater magnitude of drop seen at higher temperature.

rabbit ear vein = experiment: Acute local venous toxicity / irritation in the rabbit ear vein (REV); assay type: in vivo; design: Erythema / Edema: scale not given here
Source text: This Example illustrates the protective effect of the formulations of the invention as measured by irritation in the rabbit ear vein (REV). A typical protocol for evaluation of the local tolerance for formulations was as follows.
Dosing of animals. The rabbits used were male New Zealand rabbits weighing approximately 2.5 to 4 kg. The rabbits were acclimatized for a period of 10 days following receipt before the start of the study. The rabbits were randomized into groups based on the number of formulations to be studied. Typically 3 rabbits were used per group.
For each group of rabbits, the formulation containing the drug to be tested was dosed in the right marginal ear vein, with the corresponding placebo being dosed at the same time in the left marginal ear vein. The placebos were prepared such that they matched the formulation composition, and the technique of dosing for the drug formulations and the placebo formulations were kept the same. Typical dosing volumes ranged from 1 mL/kg to 5 mL/kg. The formulations were either dosed as (a) bolus injection wherein the entire dosing volume was administered within 5 minutes; (b) 30 minute infusion; or (c) a 2 hour infusion. The formulations were administered through appropriately sized syringes and catheters. The injection sites were marked with indelible ink for identification at each observation period. The rabbits were dosed based upon the Day 1 body weight.
Observation of animals. Each animal was observed cage side at least twice daily for mortality/morbundity. Each animal received a detailed clinical observation once prior to randomization, once prior to dosage administration and once daily thereafter.
Any abnormalities were recorded as they were observed. Observations for local irritation were scored according to the following scale
At each interval the area of irritation (if present) was also measured. The actual length and width in mm was recorded.
On day 3 the animals were euthanized and the tissues from the Pinna of the left and right ear, and any gross lesions (if present) of the ear or ear vein were collected. Histopathology was performed on the collected tissues. After fixation, the pinna was tripped into a total of 4 sections of 1 cm each; one of which included the deposition site (location of the end of the catheter in the ear) and one from approximately 1-, 2-, and 3-cm downstream from the deposition site. Each section included skin, cartilage, vein and other soft tissue. These tissues were then embedded in paraffin, sectioned and stained with hematoxylin and eosin, and examined via light microscopy.

[3] = emulsion with DEA buffer 0.05%, pH 9, Bolus dose, 2 mg/kg (conc. 10 mg/mL), 0 h
[4] = emulsion with DEA buffer 0.05%, pH 9, Bolus dose, 2 mg/kg (conc. 10 mg/mL), 48 h
[5] = emulsion with TRIS buffer 5 mM, pH 9, Bolus dose, 2 mg/kg (conc. 10 mg/mL), 0 h
[6] = emulsion with TRIS buffer 5 mM, pH 9, Bolus dose, 2 mg/kg (conc. 10 mg/mL), 48 h
[7] = emulsion with TRIS buffer 20 mM, pH 9, 2-hour infusion, 2 mg/kg (conc. 0.5 mg/mL), 0 h
[8] = emulsion with TRIS buffer 20 mM, pH 9, 2-hour infusion, 2 mg/kg (conc. 0.5 mg/mL), 48 h
[9] = solution in acetate mannitol buffer, pH 4, 2 hour infusion, 2 mg/kg (conc. 0.5 mg/mL), 0 h
[10] = solution in acetate mannitol buffer, pH 4, 2 hour infusion, 2 mg/kg (conc. 0.5 mg/mL), 48 h
[11] = solution in acetate mannitol buffer, pH 4, Bolus dose, 2 mg/kg (conc. 0.5 mg/mL), 0 h
[12] = solution in acetate mannitol buffer, pH 4, Bolus dose, 2 mg/kg (conc. 0.5 mg/mL), 48 h
[13] = solution in acetate mannitol buffer, pH 4, Bolus dose, 2 mg/kg (conc. 1 mg/mL), 0 h
[14] = solution in acetate mannitol buffer, pH 4, Bolus dose, 2 mg/kg (conc. 1 mg/mL), 48 h

C[C@@H](NCCCc1cccc(C(F)(F)F)c1)c1cccc2ccccc12 [Cinacalcet, N-(1-(R)-(1-naphthyl)ethyl]-3-[3-(trifluoromethyl)phenyl]-1-aminopropane]
pH at which charge is zero ([1]; 0% Na Oleate): 8.02 | pH at which charge is zero ([1]; 0.25% Na Oleate): 7.87 | pH at which charge is zero ([1]; 0.5% Na Oleate): 7.81 | pH at which charge is zero ([1]; 1% Na Oleate): 7.54 | zeta-potential ([1]; pH 6.5, 0% Na Oleate): 32.8 | zeta-potential ([1]; pH 6.5, 0.25% Na Oleate): 36 | zeta-potential ([1]; pH 6.5, 0.5% Na Oleate): 37.4 | zeta-potential ([1]; pH 6.5, 1% Na Oleate): 24.5 | zeta-potential ([1]; pH 7.0, 0% Na Oleate): 17.8 | zeta-potential ([1]; pH 7.0, 0.25% Na Oleate): 28.1 | zeta-potential ([1]; pH 7.0, 0.5% Na Oleate): 27.8 | zeta-potential ([1]; pH 7.0, 1% Na Oleate): 23.8 | zeta-potential ([1]; pH 7.5, 0% Na Oleate): 15.3 | zeta-potential ([1]; pH 7.5, 0.25% Na Oleate): 7.24 | zeta-potential ([1]; pH 7.5, 0.5% Na Oleate): 16.2 | zeta-potential ([1]; pH 7.5, 1% Na Oleate): 4.87 | zeta-potential ([1]; pH 8.0, 0% Na Oleate): 15 | zeta-potential ([1]; pH 8.0, 0.25% Na Oleate): 2.83 | zeta-potential ([1]; pH 8.0, 0.5% Na Oleate): 0.242 | zeta-potential ([1]; pH 8.0, 1% Na Oleate): −10.7 | zeta-potential ([1]; pH 8.5, 0% Na Oleate): −16.7 | zeta-potential ([1]; pH 8.5, 0.25% Na Oleate): −10 | zeta-potential ([1]; pH 8.5, 0.5% Na Oleate): −26.8 | zeta-potential ([1]; pH 8.5, 1% Na Oleate): −30.4 | zeta-potential ([1]; pH 9.0, 0% Na Oleate): −26.5 | zeta-potential ([1]; pH 9.0, 0.25% Na Oleate): −42.5 | zeta-potential ([1]; pH 9.0, 0.5% Na Oleate): −42.1 | zeta-potential ([1]; pH 9.0, 1% Na Oleate): −52.9 | changes in particle size ([2]; 2 years at 5° C. and 25° C.): No significant changes | cinacalcet assay and impurity levels ([2]; 2 years at 5° C. and 25° C.): within specifications | cinacalcet assay and impurity levels ([2]; 9 months at 40° C.): within specifications | changes in particle size ([2]; 18 months at 40° C.): No significant changes | local venous toxicity (rabbit ear vein; administered IV as a solution, acetate mannitol buffer at pH 4): mild to moderate | local venous toxicity effects (rabbit ear vein; cinacalcet-containing emulsions, compared with solution): greatly reduced or completely eliminated | tolerability (rabbit ear vein; emulsion buffered with either TRIS or DEA, dosed as bolus): well tolerated | tolerability (rabbit ear vein; emulsion containing TRIS dosed as an infusion): well tolerated | Edema (rabbit ear vein; [3]): 0.0 ± 0.0 | Erythema (rabbit ear vein; [3]): 0.3 ± 0.6 | Edema (rabbit ear vein; [4]): 0.0 ± 0.0 | Erythema (rabbit ear vein; [4]): 0.0 ± 0.0 | Histopathology (rabbit ear vein; emulsion with DEA buffer 0.05%, pH 9, Bolus dose, observed for both placebo and cinacalcet emulsions): Mild to moderate perivascular acute | Edema (rabbit ear vein; [5]): 0.0 ± 0.0 | Erythema (rabbit ear vein; [5]): 0.0 ± 0.0 | Edema (rabbit ear vein; [6]): 0.0 ± 0.0 | Erythema (rabbit ear vein; [6]): 0.0 ± 0.0 | Histopathology (rabbit ear vein; emulsion with TRIS buffer 5 mM, pH 9, Bolus dose, observed for both placebo and cinacalcet emulsions): Minimal to mild perivascular acute | Histopathology (rabbit ear vein; emulsion with TRIS buffer 20 mM, pH 9, 2-hour infusion, 2 mg/kg (conc. 0.5 mg/mL)): lipid emulsion was well tolerated as a 2 hour | Edema (rabbit ear vein; [7]): 0.0 ± 0.0 | Erythema (rabbit ear vein; [7]): 0.0 ± 0.0 | Edema (rabbit ear vein; [8]): 0.0 ± 0.0 | Erythema (rabbit ear vein; [8]): 0.0 ± 0.0 | Histopathology (rabbit ear vein; solution in acetate mannitol buffer, pH 4, 2 hour infusion, 2 mg/kg (conc. 0.5 mg/mL)): mild to severe acute, necrotizing inflammation | Edema (rabbit ear vein; [9]): 0.0 ± 0.0 | Erythema (rabbit ear vein; [9]): 0.0 ± 0.0 | Edema (rabbit ear vein; [10]): 3.3 ± 1.2 | Erythema (rabbit ear vein; [10]): 4.0 ± 0.0 | Histopathology (rabbit ear vein; solution in acetate mannitol buffer, pH 4, Bolus dose, 2 mg/kg): Mnimal to mild infiltrates of mixed | Edema (rabbit ear vein; [11]): 0.0 ± 0.0 | Erythema (rabbit ear vein; [11]): 0.0 ± 0.0 | Edema (rabbit ear vein; [12]): 1.7 ± 0.6 | Erythema (rabbit ear vein; [12]): 2.7 ± 0.6 | Edema (rabbit ear vein; [13]): 0.0 ± 0.0 | Erythema (rabbit ear vein; [13]): 0.0 ± 0.0 | Edema (rabbit ear vein; [14]): 2.0 ± 1.7 | Erythema (rabbit ear vein; [14]): 2.7 ± 0.6 | Histopathology (rabbit ear vein; solution in acetate mannitol buffer, pH 4, Bolus dose, at the higher dose): Mild to severe effects seen at the higher | tolerability when administered IV (rabbit ear vein; solution, acetate mannitol buffer at pH 4): poorly tolerated

— US8779004B2, “Stable emulsion formulations” (Amgen, Inc., priority 2006, dated 2014)
